Test results taken from patent publication US10189838B2, “Aza-oxo-indoles for the treatment and prophylaxis of respiratory syncytial virus infection” (Hoffmann-La Roche Inc., priority 2013, dated 2019).

What follows are compounds tested on RSV Long strain (assay: Viral cytopathic effect (CPE) assay, RSV Long strain). Conditions: cell viability after 6 days (Cell Counting kit-8).
Format: cell-based, Respiratory Syncytial Virus
Procedure: EC50: the concentration of a compound where 50% of its maximal protection effect against viral induced CPE is observed
LongStrain: an A subtype RSV strain obtained from ATCC with catalog number VR-26
To measure anti-RSV activity of compounds, 96-well plates are seeded with 6×10^3 cells per well in Dulbecco's modified Eagle's medium (DMEM) containing 10% fetal bovine serum (FBS). Cells are infected the next day with sufficient RSV Long strain (ATCC) to produce an approximately 80-90% cytopathic effect after 6 days, in the presence of serial half-log diluted compound in a total volume of […] per well. The viability of cells is assessed after 6 days using Cell Counting kit-8 (Dojindo Molecular Technologies). The absorbance at 450 nm and referenced at 630 nm is measured to determine 50% effective concentration (EC50)
In the case of `N=C(N)NCCn1c(CN2C(=O)C3(CC3)c3ccncc32)cc2cc(Cl)ccc21` [Example 28], the EC50 is reported as 64 nM.

Same assay, conditions: human respiratory syncytial virus, 144 h, cell viability after 6 days (Cell Counting kit-8)
In the case of `CS(=O)(=O)N1CCN(CCn2c(CN3C(=O)C4(CC4)c4ccncc43)cc3cc(Cl)ccc32)CC1` [Example 27-1, 1′-[(5-Chloro-1-{2-[4-(methylsulfonyl)piperazin-1-yl]ethyl}-1H-indol-2-yl)methyl]spiro[cyclopropane-1,3′-pyrrolo[2,3-c]pyridin]-2′(1′H)-one], the EC50 is reported as 6 nM.
Compound `CS(=O)(=O)CCCn1c(CN2C(=O)C3(CC3)c3ccncc32)cc2cc(Cl)cnc21` [Example 4-3, 1′-({5-Chloro-1-[3-(methylsulfonyl)propyl]-1H-pyrrolo[2,3-b]pyridin-2-yl}methyl)spiro[cyclopropane-1,3′-pyrrolo[2,3-c]pyridin]-2′(1′H)-one] has an EC50 of 37.9 nM.
Compound `CCS(=O)(=O)CCn1c(CN2C(=O)C3(CC3)c3ccncc32)nc2cc(Cl)ccc21` [Example 34-5, 1′-({5-Chloro-1-[2-(ethylsulfonyl)ethyl]-1H-benzimidazol-2-yl}methyl)spiro[cyclopropane-1,3′-pyrrolo[2,3-c]pyridin]-2′(1′H)-one] has an EC50 of 13 nM.
Compound `CN(C(=O)CCn1c(CN2C(=O)C3(CC3)c3ccncc32)cc2cc(Cl)ccc21)S(=O)(=O)C1CC1` [Example 19-2, 3-{5-Chloro-2-[(2′-oxospiro[cyclopropane-1,3′-pyrrolo[2,3-c]pyridin]-1′(2′H)-yl)methyl]-1H-indol-1-yl}-N-(cyclopropylsulfonyl)-N-methylpropanamide] has an EC50 of 59 nM.
For `CS(=O)(=O)CCn1c(CN2C(=O)C3(CC3)c3ccncc32)cc2cc(Cl)ncc21` [Example 5-2, 1′-({5-Chloro-1-[2-(methylsulfonyl)ethyl]-1H-pyrrolo[2,3-c]pyridin-2-yl}methyl)spiro[cyclopropane-1,3′-pyrrolo[2,3-c]pyridin]-2′(1′H)-one], the EC50 was 269 nM.
Work on `O=C(NCC(F)(F)F)OCCCn1c(CN2C(=O)C3(CC3)c3ccncc32)cc2cc(Cl)ccc21` [Example 31, 3-{5-Chloro-2-[(2′-oxospiro[cyclopropane-1,3′-pyrrolo[2,3-c]pyridin]-1′(2′H)-yl)methyl]-1H-indol-1-yl}propyl(2,2,2-trifluoroethyl)carbamate] yielded an EC50 of 52 nM.
`CS(=O)(=O)CCn1c(CN2C(=O)C3(CC3)c3c(F)cccc32)nc2cc(Cl)ccc21` [Example 34-2, 1′-({5-Chloro-1-[2-(methylsulfonyl)ethyl]-1H-benzimidazol-2-yl}methyl)-4′-fluorospiro[cyclopropane-1,3′-indol]-2′(1′H)-one] showed an EC50 of 20 nM.
`CS(=O)(=O)CCn1c(CN2C(=O)C3(CC3)c3ccncc32)cc2ccccc21` [Example 1-1, 1′-({1-[2-(Methylsulfonyl)ethyl]-1H-indol-2-yl}methyl)spiro[cyclopropane-1,3′-pyrrolo[2,3-c]pyridin]-2′(1′H)-one] gave an EC50 of 220 nM.
With `CS(=O)(=O)CCn1c(CN2C(=O)C3(CC3)c3ccncc32)cc2cnccc21` [Example 1-14, 1′-({1-[2-(Methylsulfonyl)ethyl]-1H-pyrrolo[3,2-c]pyridin-2-yl}methyl)spiro[cyclopropane-1,3′-pyrrolo[2,3-c]pyridin]-2′(1′H)-one] the EC50 was 77.8 nM.
`Cc1cnc2c(c1)cc(CN1C(=O)C3(CC3)c3ccncc31)n2CCS(C)(=O)=O` [Example 4-4, 1′-({5-Methyl-1-[2-(methylsulfonyl)ethyl]-1H-pyrrolo[2,3-b]pyridin-2-yl}methyl)spiro[cyclopropane-1,3′-pyrrolo[2,3-c]pyridin]-2′(1′H)-one] gave an EC50 of 64 nM.
With `CCc1ccc2c(c1)cc(CN1C(=O)C3(CC3)c3ccncc31)n2CCS(C)(=O)=O` [Example 1-8, 1′-({5-Ethyl-1-[2-(methylsulfonyl)ethyl]-1H-indol-2-yl}methyl)spiro[cyclopropane-1,3′-pyrrolo[2,3-c]pyridin]-2′(1′H)-one] the EC50 was 220 nM.
Work on `O=C1N(Cc2nc3cc(Cl)ccc3n2CCC2COC2)c2cnccc2C12CC2` [Example 38-2, 1′-({5-Chloro-1-[2-(oxetan-3-yl)ethyl]-1H-benzimidazol-2-yl}methyl)spiro[cyclopropane-1,3′-pyrrolo[2,3-c]pyridin]-2′(1′H)-one] yielded an EC50 of 3 nM.
`NC1(Cn2c(CN3C(=O)C4(CC4)c4ccncc43)nc3cc(Cl)cc(F)c32)COC1` [Example 39-2, 1′-({1-[(3-Aminooxetan-3-yl)methyl]-5-chloro-7-fluoro-1H-benzimidazol-2-yl}methyl)spiro[cyclopropane-1,3′-pyrrolo[2,3-c]pyridin]-2′(1′H)-one] gave an EC50 of 227 nM.
For `CCS(=O)(=O)CCCn1c(CN2C(=O)C3(CC3)c3ccncc32)cc2cc(Cl)ccc21` [Example 22-1, 1′-({5-Chloro-1-[3-(ethylsulfonyl)propyl]-1H-indol-2-yl}methyl)spiro[cyclopropane-1,3′-pyrrolo[2,3-c]pyridin]-2′(1′H)-one], the EC50 was 3 nM.
In the case of `O=C(O)CCn1c(CN2C(=O)C3(CC3)c3ccncc32)cc2cc(Cl)ccc21` [Example 16-1, 3-{5-Chloro-2-[(2′-oxospiro[cyclopropane-1,3′-pyrrolo[2,3-c]pyridin]-1′(2′H)-yl)methyl]-1H-indol-1-yl}propanoic acid], the EC50 is reported as 390 nM.
For `CS(=O)(=O)CCCn1c(CN2C(=O)C3(CC3)c3ccncc32)cc2nc(Cl)ccc21` [Example 4-15, 1′-({5-Chloro-1-[3-(methylsulfonyl)propyl]-1H-pyrrolo[3,2-b]pyridin-2-yl}methyl)spiro[cyclopropane-1,3′-pyrrolo[2,3-c]pyridin]-2′(1′H)-one], the EC50 was 18 nM.
Work on `O=C1CN(S(=O)(=O)CCCn2c(CN3C(=O)C4(CC4)c4ccncc43)cc3cc(Cl)ccc32)CCN1` [Example 7-6, 1′-[(5-Chloro-1-{3-[(3-oxopiperazin-1-yl)sulfonyl]propyl}-1H-indol-2-yl)methyl]spiro[cyclopropane-1,3′-pyrrolo[2,3-c]pyridin]-2′(1′H)-one] yielded an EC50 of 7 nM.
Compound `CNS(=O)(=O)CCCn1c(CN2C(=O)C3(CC3)c3ccncc32)cc2cc(Cl)ccc21` [Example 25-2, 3-{5-Chloro-2-[(2′-oxospiro[cyclopropane-1,3′-pyrrolo[2,3-c]pyridin]-1′(2′H)-yl)methyl]-1H-indol-1-yl}-N-methylpropane-1-sulfonamide] has an EC50 of 11 nM.
With `CS(=O)(=O)CCn1c(CN2C(=O)C3(CC3)c3c(Cl)cccc32)nc2cc(Cl)ccc21` [Example 34-3, 4′-Chloro-1′-({5-chloro-1-[2-(methylsulfonyl)ethyl]-1H-benzimidazol-2-yl}methyl)spiro[cyclopropane-1,3′-indol]-2′(1′H)-one] the EC50 was 66 nM.
Work on `CS(=O)(=O)NCCCn1c(CN2C(=O)C3(CC3)c3ccncc32)cc2cc(Cl)ccc21` [Example 27-3, N-(3-{5-Chloro-2-[(2′-oxospiro[cyclopropane-1,3′-pyrrolo[2,3-c]pyridin]-1′(2′H)-yl)methyl]-1H-indol-1-yl}propyl)methanesulfonamide] yielded an EC50 of 499 nM.
In the case of `CS(=O)(=O)CCCn1c(CN2C(=O)C3(CCC3)c3ccncc32)cc2cc(Cl)cnc21` [Example 4-12, 1′-({5-Chloro-1-[3-(methylsulfonyl)propyl]-1H-pyrrolo[2,3-b]pyridin-2-yl}methyl)spiro[cyclobutane-1,3′-pyrrolo[2,3-c]pyridin]-2′(1′H)-one], the EC50 is reported as 56.8 nM.
`CN(Cc1ccccc1)S(=O)(=O)CCCn1c(CN2C(=O)C3(CC3)c3ccncc32)cc2cc(Cl)cnc21` [Example 4-8, N-Benzyl-3-{5-chloro-2-[(2′-oxospiro[cyclopropane-1,3′-pyrrolo[2,3-c]pyridin]-1′(2′H)-yl)methyl]-1H-pyrrolo[2,3-b]pyridin-1-yl}-N-methylpropane-1-sulfonamide] was tested, and the EC50 was 778 nM.
`CS(=N)(=O)CCn1c(CN2C(=O)C3(CC3)c3ccncc32)cc2cc(Cl)ccc21` (centres unmarked) [Example 14-2, 1′-({5-Chloro-1-[2-(S-methylsulfonimidoyl)ethyl]-1H-indol-2-yl}methyl)spiro[cyclopropane-1,3′-pyrrolo[2,3-c]pyridin]-2′(1′H)-one] was tested, and the EC50 was 7 nM.
`NS(=O)(=O)CCCn1c(CN2C(=O)C3(CC3)c3ccncc32)cc2cc(Cl)cnc21` [Example 25-3, 3-{5-Chloro-2-[(2′-oxospiro[cyclopropane-1,3′-pyrrolo[2,3-c]pyridin]-1′(2′H)-yl)methyl]-1H-pyrrolo[2,3-b]pyridin-1-yl}propane-1-sulfonamide] gave an EC50 of 41 nM.
For `CS(=O)(=O)CCn1c(CN2C(=O)C3(CC3)c3ccncc32)cc2cc(Cl)ccc21` [Example 3-3, 1′-({5-Chloro-1-[2-(methylsulfonyl)ethyl]-1H-indol-2-yl}methyl)spiro[cyclopropane-1,3′-pyrrolo[2,3-c]pyridin]-2′(1′H)-one], the EC50 was 18 nM.
`CCS(=O)(=O)CCn1c(CN2C(=O)C3(CC3)c3cccnc32)cc2cc(Cl)ccc21` [Example 2-3, 1′-({5-Chloro-1-[2-(ethylsulfonyl)ethyl]-1H-indol-2-yl}methyl)spiro[cyclopropane-1,3′-pyrrolo[2,3-b]pyridin]-2′(1′H)-one] showed an EC50 of 247 nM.
`CS(=O)(=O)CCn1c(CN2C(=O)C3(CC3)c3c(Br)cccc32)nc2cc(Cl)ccc21` [Example 34-4, 4′-Bromo-1′-({5-chloro-1-[2-(methylsulfonyl)ethyl]-1H-benzimidazol-2-yl}methyl)spiro[cyclopropane-1,3′-indol]-2′(1′H)-one] gave an EC50 of 205 nM.
Work on `CS(=O)(=O)CCn1c(CN2C(=O)C3(CC3)c3cnccc32)cc2cc(Cl)ccc21` [Example 3-1, 1′-({5-Chloro-1-[2-(methylsulfonyl)ethyl]-1H-indol-2-yl}methyl)spiro[cyclopropane-1,3′-pyrrolo[3,2-c]pyridin]-2′(1′H)-one] yielded an EC50 of 201 nM.
